Measurements from the supplement of paper PMC8967900.

How the values were obtained:
Assay in all cases: selective drug sensitivity score (sDSS, relative to normal bone marrow) (sDSS (score)); higher = more potent and effective on the cell line relative to normal bone marrow cells
Conditions in all cases: 72 h
TANOUE = tested on: TANOUE
PEER = tested on: PEER
COG-LL-319h = tested on: COG-LL-319h
COG-LL-317 = tested on: COG-LL-317
SEM cells = tested on: SEM cells
DND-41 = tested on: DND-41
P12-ICHIKAWA = tested on: P12-ICHIKAWA
HPB-ALL = tested on: HPB-ALL
RPMI-8402 = tested on: RPMI-8402
REH = tested on: REH
MOLT-4 = tested on: MOLT-4
MOLT-16 = tested on: MOLT-16
LC4-1 = tested on: LC4-1
ALL-SIL = tested on: ALL-SIL
MOLT-14 = tested on: MOLT-14
NALM-6 = tested on: NALM-6
KARPAS-45 = tested on: KARPAS-45
RCH-ACV = tested on: RCH-ACV
COG-LL-355h = tested on: COG-LL-355h
TMD5 = tested on: TMD5
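Note: ALL cell lines in 384-well plates, five doses spanning 10,000-fold, each plate scaled between vehicle and 100 µmol/L benzalkonium chloride controls, sDSS an adapted area-under-curve metric.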

Row | SMILES | selective drug sensitivity score (TANOUE) | selective drug sensitivity score (PEER) | selective drug sensitivity score (COG-LL-319h) | selective drug sensitivity score (COG-LL-317) | selective drug sensitivity score (SEM cells) | selective drug sensitivity score (DND-41) | selective drug sensitivity score (P12-ICHIKAWA) | selective drug sensitivity score (HPB-ALL) | selective drug sensitivity score (RPMI-8402) | selective drug sensitivity score (REH) | selective drug sensitivity score (MOLT-4) | selective drug sensitivity score (MOLT-16) | selective drug sensitivity score (LC4-1) | selective drug sensitivity score (ALL-SIL) | selective drug sensitivity score (MOLT-14) | selective drug sensitivity score (NALM-6) | selective drug sensitivity score (KARPAS-45) | selective drug sensitivity score (RCH-ACV) | selective drug sensitivity score (COG-LL-355h) | selective drug sensitivity score (TMD5)
1 | NCCNc1ccc(NCCN)c2c1C(=O)c1ccncc1C2=O [Pixantrone] (top concentration 10000 nM) | -2.76 | -2.76 | -2.76 | -2.76 | -1.36 | -1.76 | -2.76 | -2.66 | -2.76 | 0.24 | -2.76 | -2.46 | -2.76 | -2.76 | -2.76 | -2.76 | -0.86 | -2.76 | 0.34 | -2.06
2 | c1cc(CN2CCCNCCNCCCNCC2)ccc1CN1CCCNCCNCCCNCC1 [Plerixafor] (top concentration 10000 nM) | 0 | 0 | 0 | 0 | 0 | 0 | 0 | 0 | 0 | 0.1 | 0 | 0 | 0 | 0 | 0 | 0.3 | 0 | 0 | 0 | 0
3 | O=C(c1ccc(OCCN2CCCCC2)cc1)c1c(-c2ccc(O)cc2)sc2cc(O)ccc12 [Raloxifene] (top concentration 10000 nM) | -1.38 | 0.82 | -2.28 | 0.42 | 1.62 | 4.52 | -0.48 | 5.02 | 1.92 | 4.62 | 1.42 | 1.02 | -0.38 | 1.72 | 2.92 | -0.88 | 3.32 | 0.02 | 3.92 | -1.88
4 | CN(C)C(=O)c1cc2cnc(Nc3ccc(N4CCNCC4)cn3)nc2n1C1CCCC1 [Ribociclib] (top concentration 10000 nM) | -2.02 | 3.18 | 2.18 | 0.38 | 2.28 | 1.68 | 2.18 | 2.78 | 2.98 | -0.42 | -1.02 | 4.88 | 4.18 | -1.12 | 1.18 | 1.18 | 0.68 | 8.08 | 0.18 | 0.78
5 | CN1CCN(CCOc2cc(OC3CCOCC3)c3c(Nc4c(Cl)ccc5c4OCO5)ncnc3c2)CC1 [Saracatinib] (top concentration 10000 nM) | -2.02 | 7.38 | 12.8 | 1.78 | 0.08 | 2.18 | 0.08 | -1.02 | 4.98 | -2.02 | 1.58 | 2.38 | 2.98 | 17.7 | 7.98 | -1.22 | 5.68 | 7.28 | 0.48 | 0.58
6 | C=CC(=O)Nc1cccc(Nc2nc(Nc3ccc(OCCOC)cc3)ncc2F)c1 [Spebrutinib] (top concentration 1000 nM) | -0.16 | 0.74 | -0.06 | -0.16 | 3.74 | -0.16 | -0.16 | -0.16 | -0.16 | -0.16 | -0.16 | 0.64 | 0.54 | 1.64 | -0.16 | 2.04 | 1.14 | 4.14 | 0.64 | -0.16
7 | C[C@@H]1CN(Cc2ccc(F)cc2)[C@@H](C)CN1C(=O)c1cc2c(C(=O)C(=O)N(C)C)cn(C)c2cc1Cl [Talmapimod] (top concentration 10000 nM) | 0 | 0 | 0 | 0 | 0.4 | 0.5 | 0 | 0 | 0.8 | 2.8 | 0 | 0 | 0 | 2.1 | 0 | 0 | 0 | 4.9 | 0 | 0
8 | C[C@@H](C(=O)O)c1ccc(-c2ccccc2)c(F)c1 [Tarenflurbil] (top concentration 10000 nM) | 4.74 | -0.16 | -0.16 | -0.16 | -0.16 | 0.54 | -0.16 | -0.16 | -0.16 | -0.06 | 0.14 | 5.04 | 0.64 | -0.16 | -0.16 | 3.44 | -0.16 | -0.16 | -0.16 | 3.64
9 | CNC(=O)c1cc(COc2nnc(Nc3ccc(Cl)cc3)c3ccoc23)ccn1 [Telatinib] (top concentration 10000 nM) | 0 | 0 | 0 | 0 | 0.2 | 0 | 0 | 0.9 | 0 | 2.6 | 0 | 0 | 0.7 | 0 | 0 | 0 | 0 | 0.2 | 0 | 0.9
10 | O=c1sn(-c2cccc3ccccc23)c(=O)n1Cc1ccccc1 [Tideglusib] (top concentration 3000 nM) | -0.3 | -0.3 | -0.3 | -0.3 | -0.3 | 3.4 | -0.3 | -0.3 | -0.3 | 0.4 | -0.3 | -0.3 | -0.3 | 3.7 | -0.3 | -0.3 | -0.3 | -0.3 | -0.3 | -0.3
11 | COc1cc2nccc(Oc3ccc(NC(=O)Nc4cc(C)on4)c(Cl)c3)c2cc1OC [Tivozanib] (top concentration 10000 nM) | -3.64 | 12.2 | 12.6 | 0.86 | 4.76 | 0.36 | 2.66 | -0.44 | 1.76 | 0.36 | 3.46 | 3.66 | 5.96 | 27 | 4.46 | 2.36 | 3.86 | 10.9 | -1.04 | 5.66
12 | Cc1cc(Nc2cc(N3CCN(C)CC3)nc(Sc3ccc(NC(=O)C4CC4)cc3)n2)n[nH]1 [Tozasertib] (top concentration 10000 nM) | -6.64 | 22.6 | 19.2 | 21.6 | 22.3 | 0.36 | 22.8 | 7.46 | 4.56 | 21.2 | 15.6 | 22.7 | 20.6 | 22.4 | 20.9 | 16.2 | 8.56 | 17.9 | 2.96 | 14.8
13 | CC1=C(/C=C/C(C)=C/C=C/C(C)=C/C(=O)O)C(C)(C)CCC1 [Tretinoin] (top concentration 10000 nM) | -2.4 | -2.4 | -2.4 | -1.8 | 0 | -2.4 | -2.4 | -1.7 | -2.4 | -1.8 | -2.4 | -2.4 | -2.4 | -2.4 | -2.4 | -2.4 | -1.8 | -2.4 | -1 | -2.4
14 | COC(=O)c1ccc2c(c1)[nH]c1ncnc(NCCCN3CCCCC3)c12 [UM729] (top concentration 10000 nM) | -0.06 | 1.84 | -0.06 | 0.94 | 2.14 | 0.64 | -0.06 | 0.64 | 2.34 | 0.24 | 2.04 | 0.94 | 1.54 | 1.44 | 3.94 | 0.34 | 2.34 | 3.24 | 1.44 | -0.06
15 | COc1cc2c(NC3CCN(C(C)C)CC3)nc(N3CCC(F)(F)CC3)nc2cc1OCCCN1CCCC1 [UNC0642] (top concentration 10000 nM) | -3.74 | -0.74 | -1.44 | 1.66 | -0.14 | 5.56 | -0.14 | -2.84 | -0.74 | -0.14 | -3.44 | -2.94 | -1.14 | -0.04 | -1.24 | -2.24 | 3.56 | 2.56 | 4.36 | -0.84
16 | O=C(c1ccc(C(=O)N2CCC(N3CCCC3)CC2)c(Nc2ccccc2)c1)N1CCC(N2CCCC2)CC1 [UNC1215] (top concentration 10000 nM) | 0 | 0 | 0 | 0 | 0 | 0 | 0 | 0 | 0 | 0.5 | 0 | 0 | 0 | 0.4 | 0 | 0 | 0 | 0 | 0 | 0
17 | CCCC(CCC)C(=O)O [Valproic_acid] (top concentration 1000000 nM) | 0 | 0 | 0 | 0 | 0 | 0 | 0 | 0 | 0 | 0 | 0 | 0 | 0 | 0 | 0 | 0 | 0 | 0 | 0 | 0
18 | Clc1ccc(Nc2nnc(Cc3ccncc3)c3ccccc23)cc1 [Vatalanib] (top concentration 10000 nM) | 0 | 0.7 | 0 | 0.5 | 0 | 0 | 0 | 0 | 0 | 0 | 0 | 0 | 0 | 0.1 | 0 | 0 | 0 | 0 | 0 | 0
19 | CCCS(=O)(=O)Nc1ccc(F)c(C(=O)c2c[nH]c3ncc(-c4ccc(Cl)cc4)cc23)c1F [Vemurafenib] (top concentration 10000 nM) | -1.14 | 2.56 | 0.36 | 3.26 | 3.26 | 3.66 | 4.16 | -0.44 | 2.06 | 4.86 | 2.26 | 3.76 | 3.56 | 3.06 | 2.66 | -1.14 | 4.16 | 3.36 | 0.86 | 1.26
